Data on one compound can be found in article PMC10492836, “Chemical-induced phase transition and global conformational reorganization of chromatin” (Nature Communications, 2023).

This assay addresses T1, histone H1.
T1 construct: Recombinant histone H1 immobilized on CM5 chip
In words: SPR (Biacore 8K, […] Langmuir fit); supported by in vitro co-condensation with H1-CFP. The class given is binding. In general terms: In SPR one partner is held on a chip, and binding of the other changes the refractive index at the surface.

What is called Kd is the free concentration of one partner at which half of the binding sites on the other are occupied at equilibrium, for simple one-to-one binding.

Structures are written as SMILES.

`COc1cccc2c1C(=O)c1c(O)c3c(c(O)c1C2=O)C[C@@](O)(C(=O)CO)C[C@@H]3O[C@H]1C[C@H](N)[C@H](O)[C@H](C)O1` [adriamycin] had a Kd of 1970 nM.
